Bridge positions count the residues as written; N and C are the ends. Peptide text beside a SMILES is read from it.
Key:
[1] = test system: bovine adrenal chromaffin cells; assay type: cell-based
[2] = target: endoproteinase Glu-C (Endo Glu-C) (Staphylococcus aureus, UniProt P0C1U8); details: pH 8
[3] = in vitro; details: human, plasma

endoproteinase Glu-C (Endo Glu-C), sequence (P0C1U8 69-336 limits assumed): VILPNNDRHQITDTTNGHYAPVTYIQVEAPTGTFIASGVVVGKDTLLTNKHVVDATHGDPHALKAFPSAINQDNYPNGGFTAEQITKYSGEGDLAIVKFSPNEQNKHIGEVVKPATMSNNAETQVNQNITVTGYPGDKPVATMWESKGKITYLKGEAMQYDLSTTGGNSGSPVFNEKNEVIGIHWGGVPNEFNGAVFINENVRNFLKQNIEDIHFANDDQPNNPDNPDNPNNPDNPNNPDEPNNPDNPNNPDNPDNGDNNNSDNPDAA

| SMILES | inhibition of nicotine-evoked catecholamine release, activity relative to linear MII [1] | intact peptide remaining on incubation with Endo-GluC [2] | stability in human plasma relative to MII | remaining at 24 h [3] |
| --- | --- | --- | --- | --- |
| CC(C)C[C@@H]1NC(=O)[C@H](CC(N)=O)NC(=O)[C@H](CO)NC(=O)[C@H](Cc2c[nH]cn2)NC(=O)[C@H](CCC(=O)O)NC(=O)[C@H](CC(C)C)NC(=O)[C@H](Cc2c[nH]cn2)NC(=O)[C@@H]2CSSC[C@@H]3NC(=O)CNC(=O)CNC(=O)CNC(=O)[C@H](C)NC(=O)[C@H](C)NC(=O)CNC(=O)CNC(=O)[C@H](CSSC[C@H](NC3=O)C(=O)N[C@@H](CO)C(=O)N[C@@H](CC(N)=O)C(=O)N3CCC[C@H]3C(=O)N[C@@H](C(C)C)C(=O)N2)NC1=O [cMII-6] (cyclo(AAGGGCCSNPVCHLEHSNLCGG); disulfide 6-12, 7-20) | comparable to linear MII | remain entirely intact | dramatically greater than MII | ~90% |
| CC(C)C[C@@H]1NC(=O)[C@H](CC(N)=O)NC(=O)[C@H](CO)NC(=O)[C@H](Cc2c[nH]cn2)NC(=O)[C@H](CCC(=O)O)NC(=O)[C@H](CC(C)C)NC(=O)[C@H](Cc2c[nH]cn2)NC(=O)[C@@H]2CSSC[C@@H]3NC(=O)CNC(=O)CNC(=O)[C@H](C)NC(=O)[C@H](C)NC(=O)CNC(=O)[C@H](C)NC(=O)CNC(=O)CNC(=O)[C@H](CSSC[C@H](NC3=O)C(=O)N[C@@H](CO)C(=O)N[C@@H](CC(N)=O)C(=O)N3CCC[C@H]3C(=O)N[C@@H](C(C)C)C(=O)N2)NC1=O [cMII-7] (cyclo(AAGGCCSNPVCHLEHSNLCGGAG); disulfide 5-11, 6-19) | comparable to linear MII | remain entirely intact | dramatically greater than MII | ~90% |
